Experimental data as given in ChEMBL document CHEMBL2069217, “Self-organizing molecular field analysis of NSAIDs: assessment of pharmacokinetic and physicochemical properties using 3D-QSPkR approach” (Eur J Med Chem, 2012).

Experiment: Dissociation constant, pKa of the compound
Type: physicochemical

| SMILES | pKa |
| --- | --- |
| CC(C(=O)O)c1ccc2c(c1)[nH]c1ccc(Cl)cc12 (stereo not drawn) [CARPROFEN] | 4.7 |
| Cc1cccc(Nc2ccccc2C(=O)O)c1C [MEFENAMIC ACID] | 4.2 |
| O=C(O)CCc1nc(-c2ccccc2)c(-c2ccccc2)o1 [OXAPROZIN] | 4.3 |
| CCCCC1C(=O)N(c2ccccc2)N(c2ccc(O)cc2)C1=O (stereo not drawn) [OXYPHENBUTAZONE ANHYDROUS] | 4.7 |
| CC(C(=O)O)c1ccc(C(=O)c2cccs2)cc1 (stereo not drawn) [SUPROFEN] | 4 |

Now from value to compound:

| pKa | SMILES |
| --- | --- |
| 4.5 | CC1=C(CC(=O)O)c2cc(F)ccc2/C1=C\c1ccc([S+](C)[O-])cc1 (stereo not drawn) |
| 6.9 | CC(C(=O)O)c1ccc2oc(-c3ccc(Cl)cc3)nc2c1 (stereo not drawn) [BENOXAPROFEN] |
| 4.7 | Cc1cc(CC(=O)O)n(C)c1C(=O)c1ccc(Cl)cc1 [ZOMEPIRAC] |
